Test results taken from article PMC5554537 (Frontiers in Pharmacology, 2017).
Where two headings read alike, the source gives them in different places.

Legend:
[1] = Metabolite profile in plasma, liver and HT29 tumor after i.p. SN30000; type: in vivo, NIH-III mice; conditions: SN30000 186 mg/kg i.p.; for Metabolite/SN30000 peak area, Tumor: HT29 tumor
Method: Mouse plasma and tissue homogenates, prepared from tissue samples in two volumes of ice-cold PBS using a TissueLyser II (Qiagen Sciences, Germantown, MD, United States) with 30 Hz oscillation frequency for 1 min, were processed by precipitating proteins with 3 vol MeOH and centrifuging (13,000 g, 4°C for 10 min). Supernatants were diluted into 3 vol water and analyzed with an Agilent model 6460 LC-MS/MS with an in-line photodiode array absorbance detector. Chromatographic separation was performed on a Zorbax Eclipse C18 column (100 mm × 3.0 mm, 1.8 μm; Agilent Technologies) at 35°C with a flow rate of 0.6 mL/min, with positive or negative mode electrospray ionization. The mobile phase was a gradient constructed using 80% MeCN/20% water/0.1% formic acid v/v/v (A) and 0.1% formic acid in water (B) from 10% A to 80% A with a total run time of […]. The gradient profile was: 0–4 min, 10% A; 4–11 min linear increase to 60% A; 11–12 min to 80% A; held for 1 min, returned to 10% A over 0.5 min and held for 2 min before the next sample injection. Absorbance spectra were collected from 230 to 600 nm with a reference wavelength of 550 nm. The mass/charge (m/z) ratio was scanned from 100 to 800 with a fragmentor voltage of 120 V. MS^2 with various collision energies was used for further characterization of some metabolites.
Metabolites were investigated in plasma, liver and HT29 tumors following i.p. dosing of female NIH-III mice with SN30000 at 186 mg/kg, which represents its previously determined MTD for this route and mouse strain ([Gu et al., 2014]). Representative chromatograms are shown in Supplementary Figure 1. A total of 19 metabolites (M1–M19) were provisionally identified (Figure 1 and Table 1). Assignments were confirmed by comparison with synthetic standards in the case of the 1-oxide M14 and nor-oxide M13, which have previously been reported as murine metabolites of SN30000 ([Wang et al., 2012]) and for M15 which is known to be the major photodegradation product of SN30000 ([Gu et al., 2014]). In addition, the previously unreported metabolite M18, which is the main plasma metabolite at late times, was isolated from pooled plasma of mice dosed with M14 in sufficient quantity for characterization by NMR (Supplementary Data). This identified M18 as an oxidation product of M14 with an alkanoic acid side-chain (Figure 1), an assignment that was confirmed by synthesis of the authentic compound which was identical by HPLC retention time, absorbance spectrum, elemental analysis, mass spectrum and NMR spectroscopy.

[2] = in vivo; conditions: female, NIH-III nude, mouse, plasma, ip
Method: SN30000, M14 and M18 dosing solutions were prepared fresh in normal saline, filtered through 0.45 μm Acrodisc filters (Pall Life Sciences, Port Washington, NY, United States), protected from light in amber vials, and used within 3 h. Doses are expressed as mg of free base equivalent for SN30000 and M14, and free acid in the case of M18. […] Blood samples were collected from mice at various times by cardiac puncture, seconds after cervical dislocation, into ice-cold tubes containing K2EDTA. These were placed on ice immediately after collection and centrifuged (3,000 g, 3 min) within 10 min to harvest plasma. Plasma and tissues were rapidly frozen in liquid nitrogen before storage at -80°C for subsequent bioanalysis.
Non-compartmental parameters of 3H-mannitol for the data
shown in Figure 9 where female NIH-III nude mice were dosed with 3H-mannitol at
from mannitol concentrations as described in Methods for SN30000 and its metabolites.
Co-administered with Administered 16hr

[3] = Compartmental plasma PK model; type: in vivo
Excerpt: This model, shown schematically in Figure 9, is based on total (free + bound) plasma concentrations; the major metabolites (M14, M13, and M18) are explicit and clearance of SN30000 occurs only by reduction to M14. The i.p. bioavailability of SN30000 was modeled with an additional term for loss from the peritoneal compartment (kloss).

[4] = system: NIH-III mice; experiment: Mouse toxicity: MTD, survival and body weight loss after single i.p. doses; type: in vivo; conditions: i.p., NIH-III mice, as stated for the temperature study (Figure 4)
Excerpt: Mouse toxicity SN30000 and metabolites M14 and M18: survival and body weight loss following single i.p. doses to NIH-III mice.
Cmpd Dose Body weight nadir Body weight nadir
(µmol/kg) Survivala Survivala
Day Weight loss (%)b Day Weight loss (%)b […]
a Survival reported as a fraction of total nu mber of animal treated at a giv en dose, with an observation time of 14 days. Deaths were predominantly due to humane ter mination because of persistent clinical signs or body weight loss > 15% of pretreatment values. b Body weig ht loss at nadir, relative to pre-treatment values. Values are mean and errors are […]
c Data from Gu et al., 2014 d Mouse died <24 hr after dosing.

[5] = system: SiHa cells; experiment: Oxygen consumption rate, Seahorse XFe96 analyser; type: cell-based, human; conditions: 200 µM, mitochondrial stress test
Method: (OCR) of the human cervical carcinoma cell line SiHa and a previously described (Guise et al., 2007) POR-overexpressing transfectant SiHa/POR, determined using a Seahorse XFe96 Analyser (Agilent). Cells were passaged in αMEM plus 5% FCS, with 1 µM puromycin to maintain POR expression in the SiHa/POR cell line. Cells were ty pically seeded at 4×10^4 cells/well in Seahorse 96 well plates (without puromycin) and ~ 18 hr later the medium was changed to Seahorse medium with 10 mM glucose and 2 mM glutamine (SMGG) adjusted to pH 7.35 (150 µl/well). Plates were degassed to remove CO2, and inhibitors were added serially using the Seahorse injectors (25 µl/injection) with rotenone (final concentration 0.5 µM) typically added at the start of the 30 min equilibration in the flux analyser. OCR was monitored for three 3 min periods following each drug addition. […]
injection 1 and at each subsequent injection to maintain concentrations at 200 µM continuously during the test. The control received equivalent injections of SMGG without drugs. In all cases (including controls), injection 2 added oligomycin to give 0.5 µM, injection 3 added carbonyl cyanide […] (FCCP) to 0.5 µM, and injection 4 added rotenone and antimy cin to 1 µM each. V alues are means and errors are standard deviations, for 6 replicate cultures. […]
suppressed by M14, both in the presence (injection 1) and absence (injection 4) of respiratory […]
presence or absence of 0.5 µM rotenone when SN30000 is added cumulatively to give the indicated concentrations. Values are means and SEM for 5 replicate cultures. The fall in OCR after transient stimulation at each addition of SN30000 is consistent with the pattern for CHO/POR cells in Supplementary Fig. 4A.
C: Concentration dependence of increases in OCR by SiHa/POR cells, measured at the first […]
effects noted above. Left panel: SN30000. Right panel: TPZ. Values are means and errors are […]

[6] = system: NIH-III mice; experiment: Core body (rectal) temperature and acute clinical signs after dosing; type: in vivo
Method: Supplementary Figure 3. Initial rates of core temperature decrease in (untreated) NIH-III mice post- mortem: co mparison with initial temperature change ante- mortem following treatment with benzotriazine oxides at their MTD. Temperature was measured in rectu m and liver over 15 min. Initial rates of temperature loss (°C/min) were: post- mortem (rectum):
(rectum) 0.33. The rectal temperature loss following dosing with M14 (135 mg/kg) was 0.6 °C/min (not shown for clarity). The drug-induced changes are redrawn from Fig. 4.

[7] = administered 16hr after SN30000 0 mg/kg
[8] = co-administered with SN30000 18.6 mg/kg i.p.
[9] = co-administered with SN30000 92.8 mg/kg i.p.
[10] = co-administered with SN30000 186 mg/kg i.p.
[11] = at the highest i.p. dose of co-administered SN30000

Compound: [O-][n+]1nc(CCCN2CCOCC2)nc2cc3c(cc21)CC=C3 [M5]
- Metabolite/SN30000 peak area, Tumor [1]: 0.04
- Metabolite/SN30000 peak area, Liver [1]: 0.64
- Metabolite/SN30000 peak area, Plasma [1]: 0.05

Compound: [O-][n+]1nc(CCCNCCO)[n+]([O-])c2cc3c(cc21)CCC3 [M7]
- Metabolite/SN30000 peak area, Tumor [1]: 0.06
- Metabolite/SN30000 peak area, Liver [1]: 0.17
- Metabolite/SN30000 peak area, Plasma [1]: 0.06

Compound: OCCNCCCc1nnc2cc3c(cc2n1)CCC3 [M11]
- Metabolite/SN30000 peak area, Tumor [1]: 0.06
- Metabolite/SN30000 peak area, Liver [1]: 0.34
- Metabolite/SN30000 peak area, Plasma [1]: 0.04

Compound: [O-][n+]1nc(CCCNCCO)nc2cc3c(cc21)CCC3 [M12]
- Metabolite/SN30000 peak area, Tumor [1]: 0.16
- Metabolite/SN30000 peak area, Liver [1]: 1.06
- Metabolite/SN30000 peak area, Plasma [1]: 0.13

Compound: [O-][n+]1nc(CCC[N+]2([O-])CCOCC2)nc2cc3c(cc21)CCC3 [M15]
- Metabolite/SN30000 peak area, Tumor [1]: 0.24
- Metabolite/SN30000 peak area, Liver [1]: 0.21
- Metabolite/SN30000 peak area, Plasma [1]: 0.26

Compound: O=C(O)CCc1n[n+]([O-])c2cc3c(cc2[n+]1[O-])CCC3 [M16]
- Metabolite/SN30000 peak area, Tumor [1]: 0.49
- Metabolite/SN30000 peak area, Liver [1]: 0.34
- Metabolite/SN30000 peak area, Plasma [1]: 0.50

Compound: O=C(O)CCc1nnc2cc3c(cc2n1)CCC3 [M17]
- Metabolite/SN30000 peak area, Tumor [1]: 0.14
- Metabolite/SN30000 peak area, Liver [1]: 0.12
- Metabolite/SN30000 peak area, Plasma [1]: 0.11

Compound: O=C1COCCN1CCCc1nc2cc3c(cc2[n+]([O-])n1)CCC3 [M19]
- Metabolite/SN30000 peak area, Tumor [1]: 0.02
- Metabolite/SN30000 peak area, Liver [1]: 0.27
- Metabolite/SN30000 peak area, Plasma [1]: 0.03

Compound: OC[C@@H](O)[C@@H](O)[C@H](O)[C@H](O)CO [Mannitol, mannitol]
- Cmax ([2]; 18.6 mg/kg, administered 16hr after SN30000 18.6 mg/kg i.p.): 36.9 µM
- half-life ([2]; 18.6 mg/kg, T1/2, administered 16hr after SN30000 18.6 mg/kg i.p.): 21 min
- Cmax ([2]; 186 mg/kg, administered 16hr after SN30000 186 mg/kg i.p.): 33.2 µM
- half-life ([2]; 186 mg/kg, T1/2, administered 16hr after SN30000 186 mg/kg i.p.): 23.2 min
- Cmax [2, 7]: 31.7 µM
- Cmax ([2]; co-administered with SN30000 1.86 mg/kg i.p.): 41.2 µM
- Cmax [2, 8]: 43.5 µM
- Cmax [2, 9]: 52.3 µM
- Cmax [2, 10]: 51 µM
- half-life ([2]; T1/2, administered 16hr after SN30000 0 mg/kg): 19.7 min
- half-life ([2]; T1/2, co-administered with SN30000 1.86 mg/kg i.p.): 14.1 min
- half-life ([2]; T1/2, co-administered with SN30000 18.6 mg/kg i.p.): 13.1 min
- half-life ([2]; T1/2, co-administered with SN30000 92.8 mg/kg i.p.): 24.6 min
- half-life ([2]; T1/2, co-administered with SN30000 186 mg/kg i.p.): 26.9 min
- Central compartment volume V1 ([3]; 1-Oxide and Nor-oxide values fixed): 0.39 L/kg
- Approximate % suppression per °C of CL ([3]; NIH-III, mouse, in vivo): ~24%
- clearance ([3]; NIH-III, mouse, plasma, other: i.p. and i.v. datasets fitted simultaneously, model clearance of the compound, read-out: CL (converted)): 1.17 L/h/kg
- Vd ([3]; NIH-III, mouse, plasma, other: i.p. and i.v. datasets fitted simultaneously, read-out: Steady state volume VSS): 0.39 L/kg
- AUC (3H-mannitol 25 µmol/kg co-administered with SN30000 1.86 mg/kg i.p.): 16.1 µM.hr/L
- AUC [7]: 17.5 µM.hr/L
- AUC (administered 16hr after SN30000 18.6 mg/kg i.p.): 19.6 µM.hr/L
- AUC (administered 16hr after SN30000 186 mg/kg i.p.): 20.4 µM.hr/L
- Increase in AUC [11]: 3 fold
- Increase in plasma half-life [11]: ~2 fold
- AUC [8]: 17.9 µM.hr/L
- AUC [9]: 36.2 µM.hr/L
- AUC [10]: 44.5 µM.hr/L

Compound: Nc1n[n+]([O-])c2ccccc2[n+]1[O-] [TPZ, tirapazamine, reference compound]
- MTD [4]: 31.7 mg/kg
- Effect on oxygen consumption rate (OCR) [5]: increased
- Initial rate of temperature loss (rectum) ([6]; i.p. SN30000 186 mg/kg, TPZ 31.7 mg/kg, M14 135 mg/kg): 0.33 °C/min
- Effect on core body temperature ([6]; i.p. dosing at MTD, compared with SN30000): induced hypothermia
